Experimental data: patent US6355658B1, “Coumarin derivatives, methods of preparation and application as medicines” (Centre National de la Recherche Scientifique, priority 1997, dated 2002)

biological target: T1, human thrombin (Homo sapiens, UniProt P00734); assay: Inactivation kinetics of human thrombin (chromogenic substrate H-D-Phe-Pip-Arg-pNA); format: biochemical; conditions: TABLE 5, phenyl esters; 25° C., pH 7.5; inactivation phase; N.I. = non-inactivator
T1 construct: human thrombin
Method: (§1) The inactivating or inhibitory properties of the coumarin derivatives were tested with respect to a certain number of enzymes: human leukocyte elastase, bovine α-chymotrypsin, human thrombin and bovine trypsin. The kinetic measurements were taken at 25° C. in the following buffers: 0.1 M Hepes, 0.5 M NaCl, 0.01% Tween 80, pH 8.0 (human leukocyte elastase); 0.025 M NaH2PO4, 0.05 M KCl, pH 7.5 (α-chymotrypsin); 0.01 M Tris, 0.01 M Hepes, 0.1 M NaCl, 0.1% PEG-6000, pH 7.5 (human thrombin); 0.1 M Tris, 0.01 M CaCl2, pH 7.5 (bovine trypsin). The chromogenic substrates used to determine the activity of the enzymes are: MeOSuc-Ala2-Pro-Val-pNA (human leukocyte elastase); Suc-Ala2-Pro-Phe-pNA (α-chymotrypsin); H-D-Phe-Pip-Arg-pNA (human thrombin); N-benzoyl-Arg-pNA (bovine trypsin) (pNA: para-nitroaniline).
(§2) The interaction of a suicide substrate with a serine protease corresponds to the minimum reaction scheme described in equation 1 in which E represents the enzyme, I represents the inhibitor, E-I represents the acyl-enzyme and E-I′ represents the inactivated enzyme [Silverman R. B., 1988, “Mechanism-based enzyme inactivation: chemistry and enzymology”, volume 1 CRC Press, Boca Raton, Fla.]: [drawing 76]
(§3) When k4 is small compared to k3, equation 1 can be simplified (equation 2, [Daniels et al., 1983, J. Biol. Chem., 258: 15046-15053]): [drawing 77]
(§4) Considering the first instants of the reaction, the system reduces to a simplified equation of the form of equation 2.
(§5) The kinetic constants characterizing the inactivation of the enzymes with the coumarin derivatives were determined using either the conventional sampling method (or batchwise method) or a method placing the inhibitor and the substrate in competition (or continuous method); these methods are described by Pochet et al. [Pochet et al., 1996, J. Med. Chem., 39: 2579-2585].
(§6) The inactivation of serine proteaaes with the coumarin derivatives is thus characterized by the following constants (see Eq. 2):
(§7) KI: apparent dissociation constant of an enzyme-inhibitor complex located upstream of ki
(§8) ki: first-order rate constant for inactivation at infinite inhibitor concentration
(§9) ki/KI: index of the overall inactivating efficacy of the inhibitor.

With `O=C(Oc1cc(F)ccc1F)c1cc2ccccc2oc1=O` [Ia5, 2,5-difluorophenyl 2-oxo-2H-1-benzopyran-3-carboxylate] the “Ki/KI or kobs/[I], Thrombin” value was “N.I”.

same assay, conditions: TABLE 5, phenyl esters; 25° C., pH 7.5; inactivation phase; N.I. = non-inactivator; read-out: Ki/KI or kobs/[I], Thrombin

Compared with `CC(=O)OCc1ccc2oc(=O)c(C(=O)Oc3cc(Cl)ccc3Cl)cc2c1` [Id11, 2,5-dichlorophenyl 6-acetoxymethyl-2-oxo-2H-1-benzopyran-3-carboxylate], `CC(=O)OCc1ccc2oc(=O)c(C(=O)Oc3cc(F)ccc3F)cc2c1` [Id12, 2,5-difluorophenyl 6-acetoxymethyl-2-oxo-2H-1-benzopyran-3-carboxylate] is 3.3-fold lower in kinact/KI: 500 M⁻¹ s⁻¹ for the first, 150 M⁻¹ s⁻¹ for the second.

biological target: T2, human leukocyte elastase (Homo sapiens, UniProt P08246); assay: Inactivation kinetics of human leukocyte elastase (chromogenic substrate MeOSuc-Ala2-Pro-Val-pNA); format: biochemical; conditions: TABLE 5, phenyl esters; 25° C., pH 8.0; inactivation phase; N.I. = non-inactivator; read-out: Ki/KI or kobs/[I], HLE
T2 sequence (P08246 30-247 limits assumed): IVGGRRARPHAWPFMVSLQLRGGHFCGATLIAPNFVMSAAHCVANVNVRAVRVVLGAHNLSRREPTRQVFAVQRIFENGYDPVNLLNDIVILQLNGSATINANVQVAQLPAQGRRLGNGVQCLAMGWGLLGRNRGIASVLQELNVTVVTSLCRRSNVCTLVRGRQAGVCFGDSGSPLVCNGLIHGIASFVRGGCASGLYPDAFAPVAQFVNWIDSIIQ
Method: as §1, §2, §3, §4, §5, §6, §7, §8, §9

Compound `Cc1ccc2oc(=O)c(C(=O)Oc3cc(Cl)ccc3Cl)cc2c1` [Ib3, 2,5-dichlorophenyl 6-methyl-2-oxo-2H-1-benzopyran-3-carboxylate] has a kinact/KI of 3000 M⁻¹ s⁻¹.

tested on: not given; assay: not given; conditions: not given

In the case of `COc1ccc(NC(=O)c2cc3cc(CCl)ccc3oc2=O)cn1` [II3, N-(6-methoxy-3-pyridyl)-6-chloromethyl-2-oxo-2H-1-benzopyran-3-carboxamide], the melting point is reported as 225 °C (dec.).
For `Cc1cncc(OC(=O)c2cc3cc(CCl)ccc3oc2=O)c1` [Ic′″2, 5-methyl-3-pyridyl 6-chloromethyl-2-oxo-2H-1-benzopyran-3-carboxylate], the melting point was 211 °C (dec.).
For `O=C(Nc1cccnc1)c1cc2cc(CCl)ccc2oc1=O` [II1, N-(3-pyridyl)-6-chloromethyl-2-oxo-2H-1-benzopyran-3-carboxamide], the melting point was 270 °C (dec.).
For `O=C(Oc1cccc2cccnc12)c1cc2cc(CCl)ccc2oc1=O` [Ic″″1, 8-quinolyl 6-chloromethyl-2-oxo-2H-1-benzopyran-3-carboxylate], the melting point was 127 °C (dec.).
For `O=C(Nc1cccnc1Cl)c1cc2cc(CCl)ccc2oc1=O` [II2, N-(2-chloro-3-pyridyl)-6-chloromethyl-2-oxo-2H-1-benzopyran-3-carboxamide], the melting point was 211 °C (dec.).

First: O=C(Oc1cc([N+](=O)[O-])ccc1[N+](=O)[O-])c1cc2ccccc2oc1=O
Second: O=C(Oc1cc(F)ccc1[N+](=O)[O-])c1cc2ccccc2oc1=O [Ia7, 5-fluoro-2-nitrophenyl 2-oxo-2H-1-benzopyran-3-carboxylate]
The melting point of the first is higher: 223 to 225 °C for the first, 219 to 223 °C for the second.

`O=C(Oc1ccc2ncccc2c1)c1cc2cc(CCl)ccc2oc1=O` [Ic″″2, 6-quinolyl 6-chloromethyl-2-oxo-2H-1-benzopyran-3-carboxylate] and `Cc1ccc(OC(=O)c2cc3cc(CCl)ccc3oc2=O)cn1` [Ic′″3, 6-methyl-3-pyridyl 6-chloromethyl-2-oxo-2H-1-benzopyran-3-carboxylate] fall in the same range of melting point: 205 to 208 °C for the first, 205 to 208 °C for the second.

Compared with `CC(=O)OCc1ccc2oc(=O)c(C(=O)Oc3cc([N+](=O)[O-])ccc3[N+](=O)[O-])cc2c1`, `CC(=O)OCc1ccc2oc(=O)c(C(=O)Oc3cc(F)ccc3[N+](=O)[O-])cc2c1` [Id15, 5-fluoro-2-nitrophenyl 6-acetoxymethyl-2-oxo-2H-1-benzopyran-3-carboxylate] is lower in melting point: 162 to 164 °C for the first, 157 to 161 °C for the second.

First: O=C(OC1CCCCC1)c1cc2cc(CCl)ccc2oc1=O [Ic′1, cyclohexyl 6-chloromethyl-2-oxo-2H-1-benzopyran-3-carboxylate]
Second: O=C(OC1CCCCCC1)c1cc2cc(CCl)ccc2oc1=O [Ic′2, cycloheptyl 6-chloromethyl-2-oxo-2H-1-benzopyran-3-carboxylate]
The melting point of the first is higher: 185 to 186 °C for the first, 171 to 174 °C for the second.

Compared with `Cc1ccc2oc(=O)c(C(=O)Oc3cc(F)ccc3Br)cc2c1` [Ib5, 2-bromo-5-fluorophenyl 6-methyl-2-oxo-2H-1-benzopyran-3-carboxylate], `Cc1ccc2oc(=O)c(C(=O)Oc3cc(F)ccc3F)cc2c1` [Ib4, 2,5-difluorophenyl 6-methyl-2-oxo-2H-1-benzopyran-3-carboxylate] is lower in melting point: 187 to 190 °C for the first, 155 to 159 °C for the second.

First: O=C(Oc1cc2ccccc2cn1)c1cc2ccccc2oc1=O [Ia10, 3-isoquinolyl 2-oxo-2H-1-benzopyran-3-carboxylate]
Second: O=C(Oc1cccc2cnccc12)c1cc2ccccc2oc1=O [Ia9, 5-isoquinolyl 2-oxo-2H-1-benzopyran-3-carboxylate]
The melting point of the first is lower: 160 to 163 °C for the first, 190 to 193 °C for the second.

Compared with `O=C(NSc1ncccc1[N+](=O)[O-])c1cc2cc(CCl)ccc2oc1=O` [IV1, N-[(3-nitro-2-pyridyl)sulfanyl]-6-chloromethyl-2-oxo-2H-1-benzopyran-3-carboxamide], `O=C(Oc1cccnc1[N+](=O)[O-])c1cc2cc(CCl)ccc2oc1=O` [Ic′″7, 2-nitro-3-pyridyl 6-chloromethyl-2-oxo-2H-1-benzopyran-3-carboxylate] is lower in melting point: 252 to 254 °C for the first, 190 to 193 °C for the second.

First: O=C(Oc1cc(F)ccc1Br)c1cc2ccccc2oc1=O [Ia6, 2-bromo-5-fluorophenyl 2-oxo-2H-1-benzopyran-3-carboxylate]
Second: O=C(Oc1cc(F)ccc1F)c1cc2ccccc2oc1=O [Ia5, 2,5-difluorophenyl 2-oxo-2H-1-benzopyran-3-carboxylate]
The melting point of the first is higher: 173 to 175 °C for the first, 134 to 137 °C for the second.

Compared with `O=C(Oc1cc([N+](=O)[O-])ccc1[N+](=O)[O-])c1cc2cc(CCl)ccc2oc1=O`, `Cc1ccc2oc(=O)c(C(=O)Oc3cc([N+](=O)[O-])ccc3[N+](=O)[O-])cc2c1` is higher in melting point: 153 to 157 °C for the first, 225 to 229 °C for the second.

First: O=C(OC1CCCCCCCCCCC1)c1cc2cc(CCl)ccc2oc1=O [Ic′4, cyclododecyl 6-chloromethyl-2-oxo-2H-1-benzopyran-3-carboxylate]
Second: O=C(OC1CCCCCCC1)c1cc2cc(CCl)ccc2oc1=O [Ic′3, cyclooctyl 6-chloromethyl-2-oxo-2H-1-benzopyran-3-carboxylate]
The melting point of the first is lower: 164 to 167 °C for the first, 169 to 170 °C for the second.

First: CC(=O)OCc1ccc2oc(=O)c(C(=O)Oc3cc(Cl)cc(Cl)c3)cc2c1 [Id13, 3,5-dichlorophenyl 6-acetoxymethyl-2-oxo-2H-1-benzopyran-3-carboxylate]
Second: CC(=O)OCc1ccc2oc(=O)c(C(=O)Oc3cc(Cl)ccc3Cl)cc2c1 [Id11, 2,5-dichlorophenyl 6-acetoxymethyl-2-oxo-2H-1-benzopyran-3-carboxylate]
The melting point of the first is lower: 146 to 150 °C for the first, 168 to 171 °C for the second.

`O=C(Oc1cccnc1Br)c1cc2cc(CCl)ccc2oc1=O` [Ic′″6, 2-bromo-3-pyridyl 6-chloromethyl-2-oxo-2H-1-benzopyran-3-carboxylate] and `O=C(Oc1cccnc1Cl)c1cc2cc(CCl)ccc2oc1=O` [Ic′″4, 2-chloro-3-pyridyl 6-chloromethyl-2-oxo-2H-1-benzopyran-3-carboxylate] cannot be ordered by melting point: 197 to 199 °C for the first, 198 to 200 °C for the second.

First: Cc1ccc2oc(=O)c(C(=O)Oc3cc(Cl)ccc3Cl)cc2c1 [Ib3, 2,5-dichlorophenyl 6-methyl-2-oxo-2H-1-benzopyran-3-carboxylate]
Second: Cc1ccc2oc(=O)c(C(=O)Oc3cc(F)ccc3[N+](=O)[O-])cc2c1 [Ib6, 5-fluoro-2-nitrophenyl 6-methyl-2-oxo-2H-1-benzopyran-3-carboxylate]
The melting point of the first is lower: 175 to 179 °C for the first, 224 to 226 °C for the second.

Compared with `CC(=O)OCc1ccc2oc(=O)c(C(=O)Oc3cc(F)ccc3F)cc2c1` [Id12, 2,5-difluorophenyl 6-acetoxymethyl-2-oxo-2H-1-benzopyran-3-carboxylate], `CC(=O)OCc1ccc2oc(=O)c(C(=O)Oc3cc(F)ccc3Br)cc2c1` [Id14, 2-bromo-5-fluorophenyl 6-acetoxymethyl-2-oxo-2H-1-benzopyran-3-carboxylate] is higher in melting point: 137 to 139 °C for the first, 148 to 150 °C for the second.

First: CCC(=O)OCc1ccc2oc(=O)c(C(=O)Oc3ccccc3)cc2c1 [Id5, phenyl 6-propionyloxymethyl-2-oxo-2H-1-benzopyran-3-carboxylate]
Second: Cc1ccc2oc(=O)c(C(=O)Oc3cccc4cnccc34)cc2c1 [Ib8, 5-isoquinolyl 6-methyl-2-oxo-2H-1-benzopyran-3-carboxylate]
The melting point of the first is lower: 186 to 187 °C for the first, 188 to 190 °C for the second.

Compared with `O=C(Oc1cc(F)ccc1Br)c1cc2cc(CCl)ccc2oc1=O` [Ic″9, 2-bromo-5-fluorophenyl 6-chloromethyl-2-oxo-2H-1-benzopyran-3-carboxylate], `O=C(Oc1cc(F)ccc1[N+](=O)[O-])c1cc2cc(CCl)ccc2oc1=O` [Ic″10, 5-fluoro-2-nitrophenyl 6-chloromethyl-2-oxo-2H-1-benzopyran-3-carboxylate] is higher in melting point: 203 to 205 °C for the first, 205 to 208 °C for the second.

`Cc1ccc(OC(=O)c2cc3cc(CCl)ccc3oc2=O)c([N+](=O)[O-])n1` [Ic′″8, 6-methyl-2-nitro-3-pyridyl 6-chloromethyl-2-oxo-2H-1-benzopyran-3-carboxylate] showed a melting point of 203 to 208 °C.
